In PubChem BioAssay (NCI):
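Interpolation was linear, between the two tested concentrations surrounding the appropriate level; five concentrations were tested over 48 hours in 96-well plates. TGI: total growth inhibition.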

Columns and labels:
Assay in all cases: NCI anticancer screen, dose series, 48 h
HCT-15 colon = tested on: HCT-15 colon
HS 578T breast = tested on: HS 578T breast
SK-MEL-5 melanoma = tested on: SK-MEL-5 melanoma
NCI-H23 lung = tested on: NCI-H23 lung
SNB-75 CNS = tested on: SNB-75 CNS
M14 melanoma = tested on: M14 melanoma
T-47D breast = tested on: T-47D breast
LOX IMVI melanoma = tested on: LOX IMVI melanoma
NCI-H460 lung = tested on: NCI-H460 lung
OVCAR-5 ovarian = tested on: OVCAR-5 ovarian
BT-549 breast = tested on: BT-549 breast
MDA-MB-231 breast = tested on: MDA-MB-231 breast
HL-60(TB) leukemia = tested on: HL-60(TB) leukemia
UO-31 renal = tested on: UO-31 renal
OVCAR-4 ovarian = tested on: OVCAR-4 ovarian
CAKI-1 renal = tested on: CAKI-1 renal
TK-10 renal = tested on: TK-10 renal
MDA-MB-435 = tested on: MDA-MB-435
HT29 colon = tested on: HT29 colon
IGROV1 ovarian = tested on: IGROV1 ovarian
NCI/ADR-RES ovarian = tested on: NCI/ADR-RES ovarian
COLO 205 colon = tested on: COLO 205 colon
A498 renal = tested on: A498 renal
KM12 colon = tested on: KM12 colon
RXF 393 renal = tested on: RXF 393 renal
ACHN renal = tested on: ACHN renal
U251 CNS = tested on: U251 CNS
SNB-19 CNS = tested on: SNB-19 CNS
K-562 leukemia = tested on: K-562 leukemia
CCRF-CEM leukemia = tested on: CCRF-CEM leukemia
A549 NSCLC = tested on: A549 NSCLC
MOLT-4 leukemia = tested on: MOLT-4 leukemia
EKVX NSCLC = tested on: EKVX NSCLC
SF-268 CNS = tested on: SF-268 CNS
SN12C renal = tested on: SN12C renal
SW-620 colon = tested on: SW-620 colon
MCF7 breast = tested on: MCF7 breast
HCC-2998 colon = tested on: HCC-2998 colon
NCI-H522 lung = tested on: NCI-H522 lung
SR leukemia = tested on: SR leukemia
SK-MEL-2 melanoma = tested on: SK-MEL-2 melanoma
SF-539 CNS = tested on: SF-539 CNS
786-0 renal = tested on: 786-0 renal
MALME-3M melanoma = tested on: MALME-3M melanoma
HOP-92 NSCLC = tested on: HOP-92 NSCLC
DU-145 prostate = tested on: DU-145 prostate
MDA-N = tested on: MDA-N
SK-MEL-28 melanoma = tested on: SK-MEL-28 melanoma
OVCAR-8 ovarian = tested on: OVCAR-8 ovarian
NCI-H226 lung = tested on: NCI-H226 lung
RPMI-8226 leukemia = tested on: RPMI-8226 leukemia
UACC-62 melanoma = tested on: UACC-62 melanoma
UACC-257 melanoma = tested on: UACC-257 melanoma
PC-3 prostate = tested on: PC-3 prostate
HCT-116 colon = tested on: HCT-116 colon
SF-295 CNS = tested on: SF-295 CNS
OVCAR-3 ovarian = tested on: OVCAR-3 ovarian
HOP-62 NSCLC = tested on: HOP-62 NSCLC
SK-OV-3 ovarian = tested on: SK-OV-3 ovarian

Question: With `O=C1CSC2(CC(/C=C/c3cccc([N+](=O)[O-])c3)=NN2c2cccc(S(=O)(=O)O)c2)N1c1nc2ccccc2s1` (centres undefined) as the molecule, how does the TGI (HCT-15 colon) read?
Answer: 44.5 µM

Question: What about the TGI (HS 578T breast) of the same molecule?
Answer: > 100 µM

Question: What about the TGI (SK-MEL-5 melanoma) of the same molecule?
Answer: > 100 µM

Question: And the TGI (NCI-H23 lung)?
Answer: 43.4 µM

Question: What about the TGI (SNB-75 CNS) of the same molecule?
Answer: 40.7 µM

Question: And the TGI (M14 melanoma)?
Answer: 92.6 µM

Question: What about the TGI (T-47D breast) of the same molecule?
Answer: 73.8 µM

Question: What about the TGI (LOX IMVI melanoma) of the same molecule?
Answer: 29.1 µM

Question: What about the TGI (NCI-H460 lung) of the same molecule?
Answer: 63.2 µM

Question: And the TGI (OVCAR-5 ovarian)?
Answer: 52.1 µM

Question: And the TGI (BT-549 breast)?
Answer: 32.7 µM

Question: What about the TGI (MDA-MB-231 breast) of the same molecule?
Answer: 43.5 µM

Question: What about the TGI (HL-60(TB) leukemia) of the same molecule?
Answer: 92.5 µM

Question: What about the TGI (UO-31 renal) of the same molecule?
Answer: 34.3 µM

Question: And the TGI (OVCAR-4 ovarian)?
Answer: 72.1 µM

Question: What about the TGI (CAKI-1 renal) of the same molecule?
Answer: > 100 µM

Question: What about the TGI (TK-10 renal) of the same molecule?
Answer: 39.8 µM

Question: What about the TGI (MDA-MB-435) of the same molecule?
Answer: 34.9 µM

Question: What about the TGI (HT29 colon) of the same molecule?
Answer: > 100 µM

Question: What about the TGI (IGROV1 ovarian) of the same molecule?
Answer: 36.8 µM

Question: And the TGI (NCI/ADR-RES ovarian)?
Answer: 70.1 µM

Question: And the TGI (COLO 205 colon)?
Answer: > 100 µM

Question: And the TGI (A498 renal)?
Answer: 52.5 µM

Question: What about the TGI (KM12 colon) of the same molecule?
Answer: 42.2 µM

Question: And the TGI (RXF 393 renal)?
Answer: > 100 µM

Question: What about the TGI (ACHN renal) of the same molecule?
Answer: 94.6 µM

Question: What about the TGI (U251 CNS) of the same molecule?
Answer: 36.3 µM

Question: And the TGI (SNB-19 CNS)?
Answer: 43.6 µM

Question: What about the TGI (K-562 leukemia) of the same molecule?
Answer: > 100 µM

Question: What about the TGI (CCRF-CEM leukemia) of the same molecule?
Answer: 48.3 µM

Question: What about the TGI (A549 NSCLC) of the same molecule?
Answer: 69.2 µM

Question: What about the TGI (MOLT-4 leukemia) of the same molecule?
Answer: 64.9 µM

Question: And the TGI (EKVX NSCLC)?
Answer: > 100 µM

Question: What about the TGI (SF-268 CNS) of the same molecule?
Answer: > 100 µM

Question: And the TGI (SN12C renal)?
Answer: 49.9 µM

Question: And the TGI (SW-620 colon)?
Answer: 76.4 µM

Question: What about the TGI (MCF7 breast) of the same molecule?
Answer: 37.2 µM

Question: And the TGI (HCC-2998 colon)?
Answer: > 100 µM

Question: What about the TGI (NCI-H522 lung) of the same molecule?
Answer: 34.1 µM

Question: And the TGI (SR leukemia)?
Answer: 48.3 µM

Question: And the TGI (SK-MEL-2 melanoma)?
Answer: 47.9 µM

Question: And the TGI (SF-539 CNS)?
Answer: > 100 µM

Question: And the TGI (786-0 renal)?
Answer: 31.8 µM

Question: And the TGI (MALME-3M melanoma)?
Answer: > 100 µM

Question: What about the TGI (HOP-92 NSCLC) of the same molecule?
Answer: 40.3 µM

Question: And the TGI (DU-145 prostate)?
Answer: 40.6 µM

Question: And the TGI (MDA-N)?
Answer: 59.1 µM

Question: And the TGI (SK-MEL-28 melanoma)?
Answer: > 100 µM

Question: And the TGI (OVCAR-8 ovarian)?
Answer: 30.7 µM

Question: What about the TGI (NCI-H226 lung) of the same molecule?
Answer: 77.5 µM

Question: And the TGI (RPMI-8226 leukemia)?
Answer: 39.2 µM

Question: What about the TGI (UACC-62 melanoma) of the same molecule?
Answer: 45.5 µM

Question: And the TGI (UACC-257 melanoma)?
Answer: > 100 µM

Question: What about the TGI (PC-3 prostate) of the same molecule?
Answer: 51 µM

Question: What about the TGI (HCT-116 colon) of the same molecule?
Answer: > 100 µM

Question: For `O=C(N/N=C/c1ccc([N+](=O)[O-])cc1)Nc1ccc(C(=O)O)cc1`, which TGI (HCT-15 colon) is on record?
Answer: > 100 µM

Question: And the TGI (HS 578T breast)?
Answer: > 100 µM

Question: What about the TGI (SK-MEL-5 melanoma) of the same molecule?
Answer: 45.9 µM

Question: What about the TGI (NCI-H23 lung) of the same molecule?
Answer: > 100 µM

Question: And the TGI (SNB-75 CNS)?
Answer: > 100 µM

Question: And the TGI (M14 melanoma)?
Answer: > 100 µM

Question: What about the TGI (T-47D breast) of the same molecule?
Answer: 49.5 µM

Question: And the TGI (LOX IMVI melanoma)?
Answer: > 100 µM

Question: And the TGI (NCI-H460 lung)?
Answer: > 100 µM

Question: And the TGI (OVCAR-5 ovarian)?
Answer: > 100 µM

Question: And the TGI (BT-549 breast)?
Answer: > 100 µM

Question: And the TGI (MDA-MB-231 breast)?
Answer: > 100 µM

Question: And the TGI (HL-60(TB) leukemia)?
Answer: > 100 µM

Question: And the TGI (UO-31 renal)?
Answer: > 100 µM

Question: And the TGI (OVCAR-4 ovarian)?
Answer: > 100 µM

Question: What about the TGI (CAKI-1 renal) of the same molecule?
Answer: > 100 µM

Question: What about the TGI (TK-10 renal) of the same molecule?
Answer: > 100 µM

Question: What about the TGI (MDA-MB-435) of the same molecule?
Answer: > 100 µM

Question: And the TGI (HT29 colon)?
Answer: > 100 µM

Question: What about the TGI (IGROV1 ovarian) of the same molecule?
Answer: > 100 µM

Question: And the TGI (NCI/ADR-RES ovarian)?
Answer: > 100 µM

Question: What about the TGI (COLO 205 colon) of the same molecule?
Answer: 81 µM

Question: What about the TGI (A498 renal) of the same molecule?
Answer: 65.1 µM

Question: What about the TGI (SF-295 CNS) of the same molecule?
Answer: 63.7 µM

Question: And the TGI (OVCAR-3 ovarian)?
Answer: 26 µM

Question: What about the TGI (KM12 colon) of the same molecule?
Answer: > 100 µM

Question: And the TGI (HOP-62 NSCLC)?
Answer: 75 µM

Question: What about the TGI (RXF 393 renal) of the same molecule?
Answer: > 100 µM

Question: What about the TGI (SK-OV-3 ovarian) of the same molecule?
Answer: 70.8 µM

Question: And the TGI (ACHN renal)?
Answer: 99.4 µM

Question: And the TGI (U251 CNS)?
Answer: > 100 µM

Question: And the TGI (SNB-19 CNS)?
Answer: > 100 µM

Question: And the TGI (K-562 leukemia)?
Answer: > 100 µM

Question: What about the TGI (CCRF-CEM leukemia) of the same molecule?
Answer: > 100 µM

Question: And the TGI (A549 NSCLC)?
Answer: > 100 µM

Question: And the TGI (MOLT-4 leukemia)?
Answer: > 100 µM

Question: What about the TGI (EKVX NSCLC) of the same molecule?
Answer: 77 µM

Question: And the TGI (SF-268 CNS)?
Answer: > 100 µM

Question: What about the TGI (SN12C renal) of the same molecule?
Answer: > 100 µM

Question: And the TGI (SW-620 colon)?
Answer: > 100 µM

Question: And the TGI (MCF7 breast)?
Answer: > 100 µM

Question: And the TGI (HCC-2998 colon)?
Answer: 52.6 µM

Question: And the TGI (NCI-H522 lung)?
Answer: 58 µM

Question: What about the TGI (SR leukemia) of the same molecule?
Answer: > 100 µM

Question: And the TGI (SK-MEL-2 melanoma)?
Answer: 83.9 µM

Question: What about the TGI (SF-539 CNS) of the same molecule?
Answer: > 100 µM

Question: What about the TGI (786-0 renal) of the same molecule?
Answer: > 100 µM

Question: And the TGI (MALME-3M melanoma)?
Answer: > 100 µM

Question: And the TGI (HOP-92 NSCLC)?
Answer: 92.1 µM

Question: And the TGI (DU-145 prostate)?
Answer: > 100 µM

Question: What about the TGI (MDA-N) of the same molecule?
Answer: > 100 µM

Question: And the TGI (SK-MEL-28 melanoma)?
Answer: > 100 µM

Question: What about the TGI (OVCAR-8 ovarian) of the same molecule?
Answer: > 100 µM

Question: What about the TGI (NCI-H226 lung) of the same molecule?
Answer: 85.8 µM

Question: And the TGI (RPMI-8226 leukemia)?
Answer: > 100 µM

Question: What about the TGI (UACC-62 melanoma) of the same molecule?
Answer: > 100 µM

Question: What about the TGI (UACC-257 melanoma) of the same molecule?
Answer: > 100 µM

Question: And the TGI (PC-3 prostate)?
Answer: > 100 µM

Question: What about the TGI (HCT-116 colon) of the same molecule?
Answer: > 100 µM
